The results in this text go back to patent US20230272012A1, “PEPTIDES AND METHODS OF USE” (REALTA LIFE SCIENCES, INC., priority 2020, published 2023).

Common to all, as to assay type: cell-based
Assay [1] deals with antibody-initiated complement activation (human O sera and AB red blood cells). Put plainly: ABO incompatibility hemolytic assay of complement activity (CH50-type). The settings on record: for inhibition of complement activation in vitro, dose response: human AB red blood cells, human O plasma, increasing amounts of peptide. The essentials:
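Type AB human erythrocytes (5.0×10^7) incubated with 15% (final) type O human serum and 0.5 mM peptide in GVBS^++, 1 h at 37 °C. Hemolysis read as supernatant absorbance at 412 nm, expressed as percent of the serum-plus-RBC positive control; means of three independent experiments ±SEM.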

The target in the next assay is T1, PD-1/PD-L1 interaction (Homo sapiens, UniProt Q15116+Q9NZQ7).
T1 construct: host or cells: PD-1 effector cells; PD-L1 aAPC/CHO-K1 cells
T1 sequence (Q15116 25-288): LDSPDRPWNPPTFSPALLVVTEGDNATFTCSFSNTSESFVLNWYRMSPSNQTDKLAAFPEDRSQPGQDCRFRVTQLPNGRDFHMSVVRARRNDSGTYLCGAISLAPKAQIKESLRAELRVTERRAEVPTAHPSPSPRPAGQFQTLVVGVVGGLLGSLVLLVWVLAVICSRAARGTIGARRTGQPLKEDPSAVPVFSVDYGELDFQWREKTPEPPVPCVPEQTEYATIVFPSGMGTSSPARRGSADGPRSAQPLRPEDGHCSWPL
T1 sequence (Q9NZQ7 19-290): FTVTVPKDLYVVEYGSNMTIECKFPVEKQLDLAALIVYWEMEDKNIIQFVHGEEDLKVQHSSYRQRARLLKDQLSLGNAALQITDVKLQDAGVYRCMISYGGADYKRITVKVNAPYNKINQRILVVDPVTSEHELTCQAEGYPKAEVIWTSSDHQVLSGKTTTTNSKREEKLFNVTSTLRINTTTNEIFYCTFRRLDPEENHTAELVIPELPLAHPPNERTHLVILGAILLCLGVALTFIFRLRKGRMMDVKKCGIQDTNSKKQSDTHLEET
Put plainly: PD-1/PD-L1 Blockade Bioassay (Promega). The settings on record: increasing peptide concentrations. The method in brief: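 PD-1 effector cells co-cultured with PD-L1 aAPC/CHO-K1 cells, with or without increasing concentrations of peptides; anti-PD-1 antibody as positive control. Blockade of PD-1/PD-L1 restores TCR signalling, read as NFAT-driven luciferase luminescence.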

Assay [2] deals with purified human Pan T-cells. Put plainly: T-cell exhaustion protocol (Dynabeads re-stimulation). The conditions noted are these: peptides 2 mg/ml at each stimulation; for IL-2 signal at stimulation 2: supernatant ELISA.

“Also recorded” adds a separate entry of the source. Bridge positions count the residues as written; N and C are the ends. Square brackets hold non-standard residues; d marks the D form. Ends that are not written are not given here. Peptide text beside a SMILES is read from it. R8 = C=CCCCCCC[C@@](C)(N)C(=O)O; S5 = C=CCCC[C@](C)(N)C(=O)O; Sar = CNCC(=O)O

As for `CC[C@H](C)[C@H](N)C(=O)N[C@]1(C)CCCCCCC=CCCC[C@@](C)(C(=O)N[C@@H](CS)C(=O)N[C@@H](CCC(N)=O)C(=O)N[C@@H](CCC(=O)O)C(=O)N[C@@H](CCCNC(=N)N)C(=O)N[C@@H](C)C(=O)N[C@@H](C)C(=O)O)NC(=O)CN(C)C(=O)[C@@H]2CCCN2C(=O)[C@H](CCC(=O)O)NC(=O)[C@H](CC(C)C)NC(=O)[C@H]([C@@H](C)CC)NC(=O)[C@H](CC(C)C)NC1=O` [PA-0115, IR8LILEP(Sar)S5CQERAA] (H-I[R8]LILEP[Sar][S5]CQERAA-OH; staple 2-9), in assay [1] (peptide 0.8 mg/ml (~0.5 mM)), the “inhibition of ABO incompatible hemolysis compared to PA-I8Sar” value was “enhanced activity”. Also, the “inhibition of PD-1/PD-L1 inhibitory signaling (luminescence)” value (from here on “inhibition … (luminescence)”) on PD-1/PD-L1 interaction is given as “did not show PD-1/PD-L1 inhibitory activity”. Besides, the “IL-2 signal at stimulation 2” value in assay [2] was “did not”.
On to `CC[C@H](C)[C@H](N)C(=O)N[C@@H](C)C(=O)N[C@@H](CC(C)C)C(=O)N[C@H](C(=O)N[C@@H](CC(C)C)C(=O)N[C@@H](CCC(=O)O)C(=O)N1CCC[C@H]1C(=O)N(C)CC(=O)N[C@@H](CS)C(=O)N[C@@]1(C)CCCC=CCCC[C@@](C)(C(=O)N[C@@H](C)C(=O)O)NC(=O)[C@H](CCCNC(=N)N)NC(=O)[C@H](CCC(=O)O)NC(=O)[C@H](CCC(N)=O)NC1=O)[C@@H](C)CC` [PA-0117, IALILEP(Sar)CS5QERS5A] (H-IALILEP[Sar]C[S5]QER[S5]A-OH; staple 10-14), for which the “inhibition … (luminescence)” value on PD-1/PD-L1 interaction (listed as RLS-0117) is “increase in luminescence indicative of inhibition of PD-1/PD-L1 inhibitory signaling; also recorded: able to inhibit PD-1/PD-L1 mediated cell signaling”. Moreover, in assay [2] (eighth day), the “Caspase 3/7 levels” value is “very low to undetectable levels of Caspase 3/7”. In addition, the “IL-2 signal at stimulation 2” value in assay [2] is reported as “showed an IL-2 signal at stimulation 2”.
As to “IALILEP(Sar)CCQERA (IALILEP[Sar]CCQERA; cysteine pairing not given here) [RLS-0133*]”, the “inhibition of complement activation in vitro, dose response” value in assay [1] is “dose-dependently inhibited complement activation; also recorded: inhibit complement activation”. For the same molecule, the “inhibition … (luminescence)” value in the assay with PD-1/PD-L1 interaction is “increase in luminescence indicative of inhibition of PD-1/PD-L1 inhibitory signaling; also recorded: able to inhibit PD-1/PD-L1 mediated cell signaling”. In addition, in assay [2], the “IL-2 signal at stimulation 2” value is listed as “did not”.
Regarding “IALILEP(Sar)dCCQERRA (IALILEP[Sar][dC]CQERRA; cysteine pairing not given here) [RLS-0127*]”, the “inhibition of complement activation in vitro, dose response” value in assay [1] is “dose-dependently inhibited complement activation; also recorded: very similar levels of inhibition to the positive control; also recorded: inhibit complement activation”. The “inhibition … (luminescence)” value in the assay with PD-1/PD-L1 interaction is “increase in luminescence indicative of inhibition of PD-1/PD-L1 inhibitory signaling; also recorded: able to inhibit PD-1/PD-L1 mediated cell signaling”. For the same molecule, the “IL-2 signal at stimulation 2” value in assay [2] was “showed an IL-2 signal at stimulation 2”.
